# Measured values taken from patent US20220380828A1, “MICROBIAL DETECTION PLATFORM” (NUCLEASE PROBE TECHNOLOGIES, INC., priority 2019, published 2022).
# d = 2'-deoxy (DNA); m = 2'-O-methyl
# Key:
# Endonuclease I = biological target: T1, Endonuclease I (Escherichia coli, UniProt P25736); test: Probe sensitivity to Endonuclease I; type: biochemical
# T1 sequence (P25736 23-235): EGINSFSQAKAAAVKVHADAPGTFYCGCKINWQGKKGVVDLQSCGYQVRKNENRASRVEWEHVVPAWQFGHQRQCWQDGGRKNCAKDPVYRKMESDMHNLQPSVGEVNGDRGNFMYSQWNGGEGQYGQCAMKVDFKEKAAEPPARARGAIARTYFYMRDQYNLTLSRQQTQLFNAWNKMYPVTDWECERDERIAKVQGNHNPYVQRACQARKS
# S. aureus (ATCC 29213) = test: S. aureus detection on probe-embedded agar Petri dishes (fluorescence imaging); type: cell-based, Staphylococcus aureus; conditions: agar plates streaked with <1000 cells, 37° C., fluorescence plate imaging (SASelect: chromogenic agar)
# Description: (§1) Tryptic Soy Agar (BD Cat. #236950) was autoclaved according to the manufacturer's instructions and cooled down to 50-60° C. Then, pre-sterilized components, including Tris-HCl (pH 9.0) (adjusted to 50 mM using the following stock solution: Rockland Cat. #MB028-1000) and CaCl2) (adjusted to 15 mM using the following stock solution: Sigma-Aldrich Cat. #21115-100ML) were added and the resulting mixture was poured into 60 mm Petri dishes (Corning Cat. #430589). 1 μM or 2 μM AttoPoly T 4mer (IDT, custom order) and 4 μg/mL Cefoxitin (Alfa Aesar Cat. #AAJ6689103) were also included where indicated. The agar mixtures were allowed to solidify, then the Petri dishes were sealed with parafilm (Bemis Cat. #999) and stored at 4° C., protected from light.
# S. aureus (ATCC 29213) cultures were grown in Tryptic Soy Broth (BD Cat. #211825) overnight at 37° C. with shaking at 300-400 rpm. Dilutions to […] were made and these were streaked on agar Petri dishes with 1 μL calibrated inoculation loops (Fisher Scientific, Fisherbrand Cat. #22363601). […]
# (§2) Two fluorescence measurement formats were used to detect the growth of target bacterial species on agar growth media. […] The fluorescence of the 96-well plates was also measured with a Bio-Tek fluorescence plate-reader using fluorescence filters tailored for green fluorescence, providing quantitative data.
# E. coli (ATCC 25922) [1] = test: Specificity control on probe-embedded agar plates: E. coli; type: cell-based, Escherichia coli; conditions: 8 hours after plating
# Description: as §1
# (§3) Two fluorescence measurement formats were used to detect the growth of target bacterial species on agar growth media. Agar media poured in 60 mm dishes or distributed to the wells of 96-well clear-bottomed plates were placed on an LED transilluminator (IORodeo) that emits blue light. A light filter was placed over the plates or dishes to block the LED-emitted light, but the filter still allows green light to pass, which is captured with an iPhone camera. […] The fluorescence of the 96-well plates was also measured with a Bio-Tek fluorescence plate-reader using fluorescence filters tailored for green fluorescence, providing quantitative data.
# MRSA (ATCC BAA1707) = test: MRSA vs MSSA detection on probe-embedded agar with/without cefoxitin, 96-well plates; type: cell-based, Staphylococcus aureus; conditions: 1 μM probe in TSA-based media with/without cefoxitin, 37° C.
# Description: Tryptic Soy Agar (BD Cat. #236950) was autoclaved according to the manufacturer's instructions and cooled down to 50-60° C. Then, pre-sterilized additives, including Tris*HCl (pH 9.0) (adjusted to 50 mM with the following stock solution: Rockland Cat. #MB028-1000) and CaCl2) (adjusted to 15 mM with the following stock solution: Sigma-Aldrich Cat. #21115-100ML) were added. 1 μM or 2 μM AttoPoly T 4mer and 4 μg/mL Cefoxitin (Alfa Aesar Cat. #AAJ6689103) were also included where indicated. 90 μL of the agar mixtures were pipetted into the wells of clear-bottom 96-well plates (Thermo Scientific, nunc Cat. #265301) and allowed to solidify. […]
# (§4) S. aureus (ATCC 29213) cultures were grown in Tryptic Soy Broth (BD Cat. #211825) overnight at 37° C. with shaking at 300-400 rpm. […] Plates were incubated at 37° C. and imaged using an IO-Rodeo fluorescent imager (IO-Rodeo, Large, Blue LED) and an iPhone 8 camera, and fluorescence was also concurrently measured with a Synergy H1 microplate reader (BioTek).
# as §2
# [2] = system: S. lugdunensis (ATCC 700328); test: Specificity control on probe-embedded agar plates: S. lugdunensis; type: cell-based, Staphylococcus lugdunensis; conditions: 8 hours after plating
# Description: as §1, §3
# most nucleases = test: Probe resistance to nucleases in general; type: biochemical
# nuclease of S. pyogenes = test: Probe sensitivity to S. pyogenes nuclease; type: biochemical
# S. pyogenes (ATCC 12344) [3] = test: S. pyogenes detection on selective fluorogenic agar in 96-well plates; type: cell-based, Streptococcus pyogenes; conditions: 0.5 μM probe, 96-well plate, in the presence of colistin (2 μg/ml), 37° C.
# Description: Tryptic Soy Agar (BD Cat. #236950) was autoclaved according to the manufacturer's instructions and cooled down to 50-60° C. Then, pre-sterilized components, including Tris-HCl (pH 8.0) (adjusted to 50 mM with the following stock solution: Fisher Scientific Cat. #BP1758-100) and MgCl2 (adjusted to 20 mM with the following stock solution: Invitrogen Cat. #AM9530G) were added. 0.5 μM Self-Hyb ATTO and 2 μg/mL Colistin (Alfa Aesar Cat. #AAJ67415XF) were also included where indicated. 90 μL of the agar mixtures were pipetted into the wells of clear-bottom 96-well plates (Thermo Scientific, nunc Cat. #265301) and allowed to solidify. […]
# as §4, with “pyogenes (ATCC® 12344™)” for “aureus (ATCC 29213)”, “with” for “using”, “also measured” for “also”, “concurrently” for “concurrently measured”
# as §2
# S. pyogenes (ATCC 12344) [4] = test: S. pyogenes detection on probe-embedded agar plates; type: cell-based, Streptococcus pyogenes; conditions: agar plates with 0.5 μM probe, streaked with 10,000 cells, 37° C.
# Description: Tryptic Soy Agar (BD Cat. #236950) was autoclaved according to the manufacturer's instructions and cooled down to 50-60 degrees C. Then, pre-sterilized components including Tris-HCl (pH 8.0) (adjusted to 50 mM with the following stock solution: Fisher Scientific Cat. #BP1758-100) and MgCl2 (adjusted to 20 mM with the following stock solution: Invitrogen Cat. #AM9530G) were added and the resulting mixture was poured into 60 mm Petri dishes (Corning Cat. #430589). 0.5 μM Self-Hyb ATTO and 2 μg/mL Colistin (Alfa Aesar Cat. #AAJ67415XF) were also included where indicated. The agar mixtures were allowed to solidify. Then the Petri dishes were sealed with parafilm (Bemis Cat. #999) and stored at 4° C., protected from light.
# S. pyogenes (ATCC® 12344) cultures were grown in Tryptic Soy Broth (BD Cat. #211825) overnight at 37° C. with shaking at 300-400 rpm. Dilutions to […] were made and streaked on agar Petri dishes with 1 μL calibrated inoculation loops (Fisher Scientific, Fisherbrand Cat. #22363601). […]
# as §2
# E. coli (ATCC 25922) [5] = test: E. coli detection on fluorogenic agar in 96-well plates; type: cell-based, Escherichia coli; conditions: 0.5 μM probe in TSA-based media, 96-well plate, 37° C.; vs S. aureus and S. pyogenes
# Description: Tryptic Soy Agar (BD Cat. #236950) was autoclaved according to the manufacturer's instructions and cooled down to 50-60° C. Then, pre-sterilized components, including Tris-HCl (pH 8.0) (adjusted to 50 mM with the following stock solution: Fisher Scientific Cat. #BP1758-100), MgCl2 (adjusted to 20 mM with the following stock solution: Invitrogen Cat. #AM9530G), and Triton® X-100 (adjusted to 1% with the following stock solution: Fisher Scientific Cat. #50-751-7090). 0.5 μM Self-Hyb ATTO was also included where indicated. […]
# as §4, with “E. coli” for “S. aureus”, “25922)” for “29213)”, “also measured” for “also”, “concurrently” for “concurrently measured”
# as §2
# [6] = biological target: micrococcal nuclease of S. aureus (Staphylococcus aureus, UniProt P00644); test: Probe sensitivity to micrococcal nuclease; type: biochemical
substance,measurement,setting,value
"CTACGTAG (DNA, backbone not given here; further chemistry not fully specified) [DNA-SH]",sensitivity to Endonuclease I,Endonuclease I,sensitive
5′-ATTO488-TTTT-ZEN-RQSp-3′ [AttoPoly T 4mer],time to detection of S. aureus colonies after plating,S. aureus (ATCC 29213),≤ 8 h
same,fluorescence produced by E. coli on probe-embedded agar,E. coli (ATCC 25922) [1],did not produce fluorescence
same,time at which MRSA can be distinguished from MSSA,MRSA (ATCC BAA1707),8 to 10 h
same,fluorescence produced by S. lugdunensis on probe-embedded agar,[2],did not produce fluorescence
"mCmUmAmCmGmUmAmG (CUACGUAG; all 2'-O-methyl, backbone not given here; thiol modification) [2′-OMe SH]",resistance to nucleases,most nucleases,resistant to most nucleases
"fUfUfUfAfUfGfCfAfUfAfAfA (UUUAUGCAUAAA; all 2'-fluoro, backbone not given here; thiol or fluorophore label) [SH-Fl 5UUU]",sensitivity to Endonuclease I,Endonuclease I,sensitive
same,sensitivity to a nuclease of S. pyogenes,nuclease of S. pyogenes,sensitive
"5′-ATTO488-fC-fU-fA-fC-fG-fU-fA-fG-ZEN-RQSp-3′ (CUACGUAG; 2'-fluoro; ATTO488, ZEN, RQSp quencher; (1)..(8) Each base pair in this sequence is a 2′-fluoro modified nucleotide. Please see Table 1 of the Specification.) [Self-Hyb ATTO]",time to detection of low concentrations of S. pyogenes,S. pyogenes (ATCC 12344) [3],≤ 10 h
same,sensitivity to Endonuclease I,Endonuclease I,sensitive
same,time to detection of S. pyogenes,S. pyogenes (ATCC 12344) [4],19 h
same,sensitivity to a nuclease of S. pyogenes,nuclease of S. pyogenes,sensitive
same,time to specific detection of E. coli,E. coli (ATCC 25922) [5],8 h
"mUTTmUmUmUmUmUmUmUmU (UTTUUUUUUUU; sugars from the 5' end m1 d2 m8, backbone not given here) [P2&3 TT Probe]",sensitivity to micrococcal nuclease of S. aureus,[6],sensitive
